Test system: H9P33, H9P44 and H9P48 cells
Assay: Microarray analysis of definitive endoderm on MEFs vs MATRIGEL +/- Wnt-3A (Table VI)
Procedure: Controls for each group included cells plated on […]-coated dishes and cultured in MEF-conditioned medium or cells plated on MEFs and cultured in ES medium. All groups contained three biological replicates and each biological replicate was repeated on two separate gene chips.
Sample preparation, hybridization, and image analysis were performed according to the Affymetrix Human Genome U133 Plus 2.0 Array. Following normalization and a log transformation, data analysis was performed using OmniViz® software (MA) and […] (VizXLabs, WA). Significant differences in gene expression between the samples were evaluated using analysis of variance and an F-test with adjusted P-value (Benjamini and Hochberg correction) of ≤0.05. Only genes with a present call in at least one group were included in the analysis.

[1] = DE treatment in low serum, on MEFS
[2] = log format, DE treatment in low serum + AA on MATRIGEL

Substance: Activin A: a member of the TGFβ superfamily; growth factor (R&D Systems) used to differentiate human embryonic stem cells
- mean normalized intensity (log format), Homo sapiens glycophorin Erik STA (GPErik) gene [1]: −0.4544
- mean normalized intensity (log format), Homo sapiens growth differentiation factor 3 (GDF3), mRNA [1]: 2.875
- mean normalized intensity (log format), Homo sapiens haptoglobin (HP), mRNA [1]: 0.477
- mean normalized intensity (log format), Homo sapiens haptoglobin-related protein (HPR), mRNA [1]: −1.196
- mean normalized intensity (log format), Homo sapiens homeobox protein goosecoid mRNA, complete cds [1]: 1.894
- mean normalized intensity (log format), Homo sapiens hypothetical protein FLJ10718 (FLJ10718), mRNA [1]: 5.552
- mean normalized intensity (log format), Homo sapiens hypothetical protein FLJ10970 (FLJ10970), mRNA [1]: 3.02
- mean normalized intensity (log format), Homo sapiens hypothetical protein FLJ11316 (FLJ11316), mRNA [1]: 0.7553
- mean normalized intensity (log format), Homo sapiens hypothetical protein FLJ22252 similar to SRY-box containing gene 17 (FLJ22252), mRNA [1]: 4.5979
- mean normalized intensity (log format), Homo sapiens hypothetical protein FLJ23403 (FLJ23403), mRNA [1]: −1.004
- mean normalized intensity (log format), Homo sapiens lumican (LUM), mRNA [1]: 0.9488
- mean normalized intensity (log format), Homo sapiens mRNA for GATA-6, complete cds [1]: 5.343
- mean normalized intensity (log format), Homo sapiens mRNA for KIAA1409 protein, partial cds [1]: −1.032
- mean normalized intensity (log format), Homo sapiens mRNA; cDNA DKFZp434D0818 (from clone DKFZp434D0818) [1]: −0.3056
- mean normalized intensity (log format), Homo sapiens mRNA; cDNA DKFZp586J0624 (from clone DKFZp586J0624) [1]: 3.699
- mean normalized intensity (log format), Homo sapiens matrix metalloproteinase 14 (membrane-inserted) (MMP14), mRNA [1]: −0.09689
- mean normalized intensity (log format), Homo sapiens phorbolin-like protein MDS019 (MDS019), mRNA [1]: 2.408
- mean normalized intensity (log format), Homo sapiens presenilin stabilization factor b (PSF) mRNA [1]: 0.5675
- mean normalized intensity (log format), Homo sapiens reserved (KCNK12), mRNA [1]: 3.78
- mean normalized intensity (log format), Homo sapiens retinoid X receptor, gamma (RXRG), mRNA [1]: −0.3204
- mean normalized intensity (log format), Homo sapiens sema domain, immunoglobulin domain (Ig), short basic domain, secreted, (semaphorin) 3E (SEMA3E), mRNA [1]: 1.276
- mean normalized intensity (log format), Homo sapiens sema domain, seven thrombospondin repeats, (semaphorin) 5A (SEMA5A), mRNA [1]: 1.487
- mean normalized intensity (log format), Homo sapiens solute carrier family 16 (monocarboxylic acid transporters), member 3 (SLC16A3), mRNA [1]: 1.724
- mean normalized intensity (log format), Homo sapiens solute carrier family 21 (prostaglandin transporter), member 2 (SLC21A2), mRNA [1]: 2.433
- mean normalized intensity (log format), Homo sapiens type VI collagen alpha 2 chain precursor (COL6A2) mRNA [1]: 2.845
- mean normalized intensity (log format), Homo sapiens, alpha-1 (VI) collagen [1]: −2.269
- mean normalized intensity (log format), Homo sapiens, clone MGC: 4655, mRNA [1]: 2.476
- mean normalized intensity (log format), Human (clone 8B1) Br-cadherin mRNA [1]: −1.026
- mean normalized intensity (log format), Human (clone HSY3RR) neuropeptide Y receptor (NPYR) mRNA [1]: 5.48
- mean normalized intensity (log format), Human DNA sequence from clone RP1-181C24 on chromosome 6p11.1-12.2 (3 end of the BMP5 gene) [1]: −0.3731
- mean normalized intensity (log format), Human Fritz mRNA, complete cds [1]: 3.915
- mean normalized intensity (log format), Human dipeptidyl peptidase IV (CD26) mRNA [1]: −1.256
- mean normalized intensity (log format), Human glycophorin HeP2 mRNA, partial cds [1]: 0.2335
- mean normalized intensity (log format), Human link protein mRNA, complete cds [1]: −1.263
- mean normalized intensity (log format), Human mRNA for alpha-1 type II collagen [1]: −0.3802
- mean normalized intensity (log format), Human mRNA for apolipoprotein AI (apo AI) [1]: 2.497
- mean normalized intensity (log format), Human prostatic secretory protein 57 mRNA [1]: −0.4077
- mean normalized intensity (log format), KIAA0878 protein [1]: 4.789
- mean normalized intensity (log format), KIAA1462 protein [1]: 0.4371
- mean normalized intensity (log format), MCP-1 = monocyte chemotactic protein [1]: 2.955
- mean normalized intensity (log format), Rho GDP dissociation inhibitor (GDI) alpha [1]: −2.582
- mean normalized intensity (log format), WAS protein family, member 2 [1]: −1.06
- mean normalized intensity (log format), collagen, type IX, alpha 2 [1]: 2.935
- mean normalized intensity (log format), collagen, type VI, alpha 1 [1]: 0.6042
- mean normalized intensity (log format), glycophorin B (includes Ss blood group) [1]: −0.1297
- mean normalized intensity (log format), hepatocyte nuclear factor 4, alpha [1]: 0.4452
- mean normalized intensity (log format), homeo box HB9 [1]: 1.631
- mean normalized intensity (log format), hypothetical protein FLJ21032 [1]: 2.618
- mean normalized intensity (log format), hypothetical protein FLJ23091 [1]: 3.78
- mean normalized intensity (log format), hypothetical protein FLJ23403 [1]: −2.313
- mean normalized intensity (log format), matrix metalloproteinase 14 (membrane-inserted) [1]: −0.5185
- mean normalized intensity (log format), microfibrillar-associated protein 4 [1]: −0.6009
- mean normalized intensity (log format), myristoylated alanine-rich protein kinase C substrate (MARCKS, 80K-L) [1]: 0.3357
- mean normalized intensity (log format), neuropilin 1 [1]: −1.9667
- mean normalized intensity (log format), noggin [1]: 1.33
- mean normalized intensity (log format), phorbolin-like protein MDS019 [1]: 0.5035
- mean normalized intensity (log format), solute carrier family 16 (monocarboxylic acid transporters), member 3 [1]: 0.279
- mean normalized intensity (log format), splicing factor, arginineserine-rich 5 [1]: 4.272
- mean normalized intensity (log format), stanniocalcin 1 [1]: 6.143
- mean normalized intensity: DKFZP566K1924 protein [2]: 2.882
- mean normalized intensity: ESTs, Moderately similar to ALU2_HUMAN ALU SUBFAMILY SB SEQUENCE CONTAMINATION WARNING ENTRY (H. sapiens) [2]: 4.241
- mean normalized intensity: H. sapiens mRNA for B-HLH DNA binding protein. [2]: 5.43
- mean normalized intensity: Homo sapiens BCL2-interacting killer (apoptosis-inducing) (BIK), mRNA. [2]: 4.3
- mean normalized intensity: Homo sapiens Charot-Leyden crystal protein (CLC), mRNA. [2]: 3.301
- mean normalized intensity: Homo sapiens HES-related repressor protein 1 HERP1 mRNA, complete cds. [2]: 2.806
- mean normalized intensity: Homo sapiens HSPC156 protein (HSPC156), mRNA. [2]: 0.7862
- mean normalized intensity: Homo sapiens KIAA0469 gene product (KIAA0469), mRNA. [2]: 4.031
- mean normalized intensity: Homo sapiens PNAS-123 mRNA, complete cds [2]: 1.597
- mean normalized intensity: Homo sapiens Wilms tumor 1 (WT1), transcript variant D, mRNA. [2]: 2.405
- mean normalized intensity: Homo sapiens cDNA FLJ11398 fis, clone HEMBA1000637. [2]: 2.5268
- mean normalized intensity: Homo sapiens cDNA: FLJ22547 fis, clone HSI00356 [2]: 4.294
- mean normalized intensity: Homo sapiens cadherin 6, type 2, K-cadherin (fetal kidney) (CDH6), mRNA. [2]: 0.8248

— patent US11708562B2, “Differentiation of human embryonic stem cells” (Janssen Biotech, Inc., priority 2006, dated 2023)
